The record followed here is patent US5965539A, “Inhibitors of prenyl transferases” (Univeristy of Pittsburgh, priority 1996, dated 1999).

Test [1] has as its system H-RasGG activation of MAPK. Conditions: 5 μM, FIG. 5B.
The test system of test [2] is K-Ras4B processing. Description: K-Ras4B processing assay in NIH 3T3 cells overexpressing oncogenic K-Ras4B. It is filed as cell-based. Conditions: whole cells. An excerpt:
H-Ras cells (45) and K-Ras4B Cells (32) were kind gifts from Dr. Channing Der and Dr. Adrienne Cox (University of North Carolina, Chapel Hill). Means of obtaining these cell lines will be easily recognized by the skilled practitioner.

Test [3] relates to Ras nucleotide state. The conditions noted are these: H-RasF cells.
Method: H-RasF cells were seeded and treated as above for Ras/Raf interaction and Ras and Rap1A processing. On day 2, however, cells were labeled overnight with [^32 P] orthophosphate at 100 μCi/mo (Amersham PBS13) in 10 ml DMEM-phosphate supplemented with 10% calf serum, 1 mg/ml BSA and 20 mM HEPES, pH 7.5. On day 3, the medium was removed and cells were washed one time in ice-cold PBS, scraped from the plate with a cell scraper, collected and centrifuged. The cell pellet was resuspended in ice-cold hypotonic buffer listed above and the cytosol and membrane fractions were separated according to the above description for Ra/Raf association. The cytosol and membrane fractions were lysed on ice for 60 min in 50 mM Tris, pH 7.5, 5 mM MgCl2, 1% Triton X-100 (TX-100), 0.5% DOC, 0.05% SDS, 500 mM NaCl, 1 mM EGTA, 10 μg/ml aprotinin, 10 μg/ml soybean trypsin inhibitor, 25 μg/ml leupeptin, 1 mM DTT, 1 mg/ml BSA. Lysates were cleared and equal amounts of protein were immunoprecipitated using anti-Ras antibody (Y13-259) along with 30 μl Protein A-Agarose goat anti-rat IgG complex (Oncogene Science) for 60 min at 4° C. […] Plates were analyzed by autoradiogram.
Test [4] deals with Rap1A processing. Nature of the test: Rap1A processing assay in NIH 3T3 cells overexpressing oncogenic H-Ras, immunoblot. It is filed as cell-based. The conditions noted are these: for IC50: whole cells. On the procedure:
H-RasF cells (45) were seeded on day 0 in 100 mm Dishes (costar) in Dulbecco's modified Eagles medium (GIBCO) and allowed to grow to 40-60% confluency. […] On day 3, cells were washed one time with ice cold PBS and were collected and lysed by incubation for 30-60 min on ice in lysis buffer (41). Lysates were cleared (14,000 rpm, 4° C., 15 min) and supernatants collected. Equal amounts of lysate were separated on a 12.5% SDS-PAGE, transfered to nitrocellulose, and a western blot performed using a anti-Ras antibody (Y13-238, ATCC) or anti-Rap1A antibody (Santa Cruz Biotechnology, Santa Cruz, Calif.). Antibody reactions were visualized using peroxidase-conjugated goat anti-rat IgG for Y13-238 and peroxidase-conjugated goat anti-rabbit IgG for Rap1A and an enhanced chemiluminescence detection system (ECL; Amersham Corp.)
H-Ras cells (45) and K-Ras4B Cells (32) were kind gifts from Dr. Channing Der and Dr. Adrienne Cox (University of North Carolina, Chapel Hill). Means of obtaining these cell lines will be easily recognized by the skilled practitioner. Cells were seeded on day 0 in 100 mm dishes in Dulbecco's modified Eagles medium supplemented with 10% calf serum and 1% penicillin-streptomycin. […] On day 3, cells were washed and lysed in lysis buffer containing 50 mM HEPES, pH 7.5, 10 mM NaCl, 1% TX-100, 10% glycerol, 5 mM MgCl2, 1 mM EGTA, 25 μg/ml leupeptin, 2 mM PMSF, 2 mM Na3 VO4, 1 mg/ml soybean trypsin inhibitor, 10 μg/ml aprotinin, 6.4 mg/ml Sigma-104® phosphatase substrate. Lysates were cleared (14,000 rpm, 4° C., 15 min) and equal amounts of protein were separated on a 12.5% SDS-PAGE, transferred to nitrocellulose, and immunoblotted using an anti-Ras antibody (Y13-259, ATCC) or an anti-RapIA antibody (SC-65, Santa Cruz Biotechnology, Santa Cruz, Calif.). Antibody reactions were visualized using either peroxidase-conjugated goat anti-rat 1 gG (for Y13-259), or peroxidase-conjugated goat anti-rabbit 1 gG (for Rap1A) and an enhanced chemiluminescence detection (ECL, Amersham Corp.), as described previously (41).

The target in test [5] is T1, GGTase I (Homo sapiens, UniProt P53609).
T1 construct: FTase and GGTase I activities from 60,000×g supernatants of human Burkitt lymphoma (Daudi) cells; endogenous in cells; host or cells: human Burkitt lymphoma (Daudi) cells, 60,000xg supernatant (partially purified)
T1 sequence (P53609 whole entry): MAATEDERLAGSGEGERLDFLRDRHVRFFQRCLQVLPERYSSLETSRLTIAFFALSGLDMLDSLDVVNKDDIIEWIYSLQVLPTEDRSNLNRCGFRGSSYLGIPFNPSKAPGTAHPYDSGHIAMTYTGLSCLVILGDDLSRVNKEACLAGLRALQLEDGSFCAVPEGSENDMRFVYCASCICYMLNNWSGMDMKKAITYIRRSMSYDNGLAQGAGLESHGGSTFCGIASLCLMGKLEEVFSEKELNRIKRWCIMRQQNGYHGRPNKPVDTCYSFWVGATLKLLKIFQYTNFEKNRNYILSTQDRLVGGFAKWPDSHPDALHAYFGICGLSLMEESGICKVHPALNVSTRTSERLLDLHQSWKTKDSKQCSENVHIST
Nature of the test: GGTase I activity assay: transfer of [3H]geranylgeranyl to recombinant H-Ras-CVLL, Daudi 60,000xg supernatant. The format is biochemical. The conditions noted are these: Table 1; read-out: GGTase I IC50.

Test [6] relates to Raf-1 kinase. The conditions noted are these: H-RasF cells.
Method: Raf-1 kinase was assayed by determining the ability of Raf to transfer phosphate from [γ-^32 P] ATP to a 19-mer peptide containing an autophosphorylation site. Membrane and cytosol fraction isolation and Raf immunoprecipitates were washed three times with cold HEPES buffer and twice with kinase buffer (50 mM Tris, pH 7.5, 150 mM NaCl, 12 mM MnCl2, 1 mM DTT, 0.2% Tween 20. Immune complex kinase assays were performed by incubating immunoprecipitaes from membrane and cytosol fractions in 96 μl of kinase buffer with 20 μCi of [γ-^32 P]ATP (10 mCi/ml, Amersham) and 2 μl of the Raf-1 substrate peptide (1 mg/ml, Promega) for 30 min at 25° C. The sequence of the Raf-1 substrate peptide is [sequence]. The phosphorylation reaction was terminated by spotting 50 μl aliquots of the assay mixture onto Whatman P81 for 40 min in 0.5% orthophosphoric acid and air dried. The amount of ^32 P incorporated was determined by liquid scintillation counting.

SMILES strings stand for the structures. Like-named read-outs stand apart in the source and are kept apart here.

In general, IC50 refers to the concentration that inhibits the measured activity by half. Consider `COC(=O)[C@H](CCSC)NC(=O)c1ccc(NC[C@@H](N)CS)cc1-c1ccccc1` [FTI-277, 4-N-[2(R)-Amino-3-mercaptopropyl]amino-2-phenylbenzoyl methionine methyl ester], for which the “block of H-RasGG activation of MAPK” value in test [1] was “able to block H-RasF but not H-RasGG activation of MAPK”. Besides, the IC50 in test [2] (Table 5, read-out: In Vivo Processing IC50 K-Ras) stood at 10 µM; in test [2] (read-out: K-Ras4B processing IC50) it was 10 µM; in test [4] (Table 5, read-out: In Vivo Processing IC50 Rap1A) it was 50 µM; in test [4] (read-out: Rap1A processing IC50), 50 µM; in test [5], 1.6 µM. The “nucleotide state of non-farnesylated cytosolic Ras” value in test [3] is “GTP bound”. For the same compound, the “inhibition of processing of geranylgeranylated Rap1A” value in test [4] (concentrations as high as 10 μM) is “did not inhbit processing”. Also, the “oncogenic Ras-F induced activation of Raf kinase in the plasma membrane” value in test [6] is “suppressed this activation”.
